Common to all, as to format: functional
In assay [1] the test system is Candida albicans. Put plainly: Antifungal activity against drug-resistant Candida albicans by CLSI two fold serial dilution method.
In the next assay the test system is Bacillus subtilis. Put plainly: Antibacterial activity against Bacillus subtilis ATCC 21216 after 18 to 24 hrs by CLSI two fold serial dilution method.
The test system of another assay is Saccharomyces cerevisiae. The experiment in a line: Antifungal activity against Saccharomyces cerevisiae ATCC 9763 by CLSI two fold serial dilution method.
Another assay concerns Enterococcus faecalis. Put plainly: Antibacterial activity against drug-resistant Enterococcus faecalis after 18 to 24 hrs by CLSI two fold serial dilution method.
A further assay deals with Micrococcus luteus. Put plainly: Antibacterial activity against Micrococcus luteus ATCC 4698 after 18 to 24 hrs by CLSI two fold serial dilution method.
Assay [2] has as its system Pseudomonas aeruginosa. The experiment in a line: Antibacterial activity against drug-resistant Pseudomonas aeruginosa after 18 to 24 hrs by CLSI two fold serial dilution method.
The test system of another assay is Acinetobacter baumannii. The experiment in a line: Antibacterial activity against drug-resistant Acinetobacter baumannii after 18 to 24 hrs by CLSI two fold serial dilution method.
Assay [3] has as its system Staphylococcus aureus. Put plainly: Antibacterial activity against Staphylococcus aureus ATCC 25923 after 18 to 24 hrs by CLSI two fold serial dilution method.
The test system of the next assay is Aspergillus flavus. Put plainly: Antifungal activity against Aspergillus flavus ATCC 204304 by CLSI two fold serial dilution method.
For assay [4], the system named is Escherichia coli. The experiment in a line: Antibacterial activity against drug-resistant Escherichia coli after 18 to 24 hrs by CLSI two fold serial dilution method.
The next assay deals with Cyberlindnera jadinii. The experiment in a line: Antifungal activity against Candida utilis ATCC 9950 by CLSI two fold serial dilution method. Conditions: Williopsis jadinii.
For assay [5], the system named is Candida albicans. The experiment in a line: Antifungal activity against Candida albicans ATCC 76615 by CLSI two fold serial dilution method.
Assay [6] concerns Escherichia coli. Put plainly: Antibacterial activity against Escherichia coli DH52 after 18 to 24 hrs by CLSI two fold serial dilution method.
Assay [7] deals with Pseudomonas aeruginosa. Put plainly: Antibacterial activity against Pseudomonas aeruginosa ATCC 27853 after 18 to 24 hrs by CLSI two fold serial dilution method.
For another assay, the system named is Aspergillus fumigatus. Put plainly: Antifungal activity against drug-resistant Aspergillus fumigatus by CLSI two fold serial dilution method.
A further assay has as its system Candida tropicalis. Put plainly: Antifungal activity against drug-resistant Candida tropicalis by CLSI two fold serial dilution method.
In assay [8] the test system is Staphylococcus aureus. The experiment in a line: Antibacterial activity against methicillin-resistant Staphylococcus aureus N315 after 18 to 24 hrs by CLSI two fold serial dilution method.
A further assay concerns Pichia norvegensis. Put plainly: Antifungal activity against Candida mycoderma ATCC 96918 by CLSI two fold serial dilution method.
A further assay relates to Candida parapsilosis. Put plainly: Antifungal activity against Candida parapsilosis ATCC 22019 by CLSI two fold serial dilution method. Particulars: Lodderomyces parapsilosis.
A further assay has as its system Klebsiella pneumoniae. Put plainly: Antibacterial activity against drug-resistant Klebsiella pneumoniae after 18 to 24 hrs by CLSI two fold serial dilution method.

Data on five molecules can be found in ChEMBL document CHEMBL4145497, “Discovery of 2-aminothiazolyl berberine derivatives as effectively antibacterial agents toward clinically drug-resistant Gram-negative Acinetobacter baumanii” (Eur J Med Chem, 2018).

The structures appear in SMILES notation. Values after ≈ are worked out from the molar mass of the structure shown.

A word on the MIC: it is the smallest concentration in the dilution series that meets the test's criterion for growth inhibition. Read a low MIC as greater potency. For the molecule `COc1cc(/C=N/NC(N)=S)c2c(c1O)CN1CCc3cc4c(cc3C1C2)OCO4` (stereo not given), the MIC in the assay with Candida albicans [1] is 300 µM (≈ 128 µg/mL); in the assay with Bacillus subtilis, 300 µM (≈ 128 µg/mL); against Saccharomyces cerevisiae, 300 µM (≈ 128 µg/mL); in the assay with Enterococcus faecalis, 300 µM (≈ 128 µg/mL); in the assay on Micrococcus luteus, 300 µM (≈ 128 µg/mL); with Pseudomonas aeruginosa [2], 150 µM (≈ 64 µg/mL). Moreover, the MIC in the assay with Acinetobacter baumannii came out at 150 µM (≈ 64 µg/mL); with Staphylococcus aureus [3], 150 µM (≈ 64 µg/mL); in the assay on Aspergillus flavus, 600 µM (≈ 256 µg/mL); in the assay with Escherichia coli [4], 600 µM (≈ 256 µg/mL); in the assay on Cyberlindnera jadinii it was 600 µM (≈ 256 µg/mL); in the assay with Candida albicans [5], 150 µM (≈ 64 µg/mL). The MIC worked out at 300 µM (≈ 128 µg/mL) against Escherichia coli [6]; 150 µM (≈ 64 µg/mL) against Pseudomonas aeruginosa [7]; 150 µM (≈ 64 µg/mL) with Aspergillus fumigatus; 300 µM (≈ 128 µg/mL) in the assay on Candida tropicalis; 150 µM (≈ 64 µg/mL) with Staphylococcus aureus [8]; 300 µM (≈ 128 µg/mL) against Pichia norvegensis. Moreover, the MIC came to 9 µM (≈ 3.84 µg/mL) in the assay on Candida parapsilosis and 150 µM (≈ 64 µg/mL) in the assay on Klebsiella pneumoniae.

For the molecule `COc1cc(/C=N/NC(N)=S)c2c(c1OCc1ccc(Cl)cc1)CN1CCc3cc4c(cc3C1C2)OCO4` (stereo not given), the MIC against Candida albicans [1] was 230 µM (≈ 127 µg/mL); against Bacillus subtilis, 470 µM (≈ 259 µg/mL); in the assay with Saccharomyces cerevisiae it was 470 µM (≈ 259 µg/mL); in the assay with Enterococcus faecalis it was 230 µM (≈ 127 µg/mL); against Micrococcus luteus, 230 µM (≈ 127 µg/mL); against Pseudomonas aeruginosa [2], 230 µM (≈ 127 µg/mL). The MIC came to 230 µM (≈ 127 µg/mL) in the assay with Acinetobacter baumannii; 230 µM (≈ 127 µg/mL) against Staphylococcus aureus [3]; 470 µM (≈ 259 µg/mL) in the assay on Aspergillus flavus; 230 µM (≈ 127 µg/mL) against Escherichia coli [4]; 470 µM (≈ 259 µg/mL) against Cyberlindnera jadinii; 230 µM (≈ 127 µg/mL) in the assay on Candida albicans [5]. Moreover, the MIC came to 230 µM (≈ 127 µg/mL) against Escherichia coli [6]; 230 µM (≈ 127 µg/mL) against Pseudomonas aeruginosa [7]; 470 µM (≈ 259 µg/mL) in the assay on Aspergillus fumigatus; 230 µM (≈ 127 µg/mL) against Candida tropicalis; 230 µM (≈ 127 µg/mL) in the assay on Staphylococcus aureus [8]; 230 µM (≈ 127 µg/mL) against Pichia norvegensis. Besides, the MIC is 7 µM (≈ 3.86 µg/mL) against Candida parapsilosis and 120 µM (≈ 66.1 µg/mL) against Klebsiella pneumoniae.

As for `C#CCOc1c(OC)cc(/C=N/NC(N)=S)c2c1CN1CCc3cc4c(cc3C1C2)OCO4` (stereo not given), the MIC against Candida albicans [1] amounted to 140 µM (≈ 65 µg/mL); in the assay on Bacillus subtilis, 550 µM (≈ 256 µg/mL); in the assay on Saccharomyces cerevisiae, 280 µM (≈ 130 µg/mL); in the assay with Enterococcus faecalis, 550 µM (≈ 256 µg/mL); with Micrococcus luteus, 280 µM (≈ 130 µg/mL); in the assay on Pseudomonas aeruginosa [2], 550 µM (≈ 256 µg/mL). Moreover, the MIC came to 4 µM (≈ 1.86 µg/mL) in the assay on Acinetobacter baumannii; 70 µM (≈ 32.5 µg/mL) in the assay on Staphylococcus aureus [3]; 550 µM (≈ 256 µg/mL) against Aspergillus flavus; 140 µM (≈ 65 µg/mL) in the assay on Escherichia coli [4]; 280 µM (≈ 130 µg/mL) in the assay with Cyberlindnera jadinii; 140 µM (≈ 65 µg/mL) in the assay on Candida albicans [5]. For the same molecule, the MIC came to 140 µM (≈ 65 µg/mL) against Escherichia coli [6]; 550 µM (≈ 256 µg/mL) against Pseudomonas aeruginosa [7]; 20 µM (≈ 9.29 µg/mL) with Aspergillus fumigatus; 140 µM (≈ 65 µg/mL) with Candida tropicalis; 30 µM (≈ 13.9 µg/mL) against Staphylococcus aureus [8]; 1100 µM (≈ 511 µg/mL) in the assay on Pichia norvegensis. For the same molecule, the results for the MIC in the assay with Candida parapsilosis and in the assay with Klebsiella pneumoniae were 280 µM (≈ 130 µg/mL) and 140 µM (≈ 65 µg/mL), respectively.

Take `CCCCCCCCOc1c(OC)cc(/C=N/NC(N)=S)c2c1CN1CCc3cc4c(cc3C1C2)OCO4` (stereo not given): the MIC in the assay on Candida albicans [1] was found to be 240 µM (≈ 129 µg/mL); in the assay on Bacillus subtilis, 240 µM (≈ 129 µg/mL); in the assay with Saccharomyces cerevisiae it was 480 µM (≈ 259 µg/mL); against Enterococcus faecalis, 120 µM (≈ 64.6 µg/mL); in the assay with Micrococcus luteus, 240 µM (≈ 129 µg/mL); with Pseudomonas aeruginosa [2], 120 µM (≈ 64.6 µg/mL). The MIC amounted to 240 µM (≈ 129 µg/mL) in the assay with Acinetobacter baumannii; 60 µM (≈ 32.3 µg/mL) in the assay with Staphylococcus aureus [3]; 240 µM (≈ 129 µg/mL) against Aspergillus flavus; 240 µM (≈ 129 µg/mL) against Escherichia coli [4]; 240 µM (≈ 129 µg/mL) against Cyberlindnera jadinii; 240 µM (≈ 129 µg/mL) against Candida albicans [5]. The MIC with Escherichia coli [6] amounted to 240 µM (≈ 129 µg/mL); in the assay with Pseudomonas aeruginosa [7], 120 µM (≈ 64.6 µg/mL); in the assay with Aspergillus fumigatus, 60 µM (≈ 32.3 µg/mL); against Candida tropicalis, 120 µM (≈ 64.6 µg/mL); against Staphylococcus aureus [8], 120 µM (≈ 64.6 µg/mL); with Pichia norvegensis, 240 µM (≈ 129 µg/mL). Also, the figures for the MIC against Candida parapsilosis and in the assay on Klebsiella pneumoniae were 120 µM (≈ 64.6 µg/mL) and 240 µM (≈ 129 µg/mL), respectively.

On to `COc1cc(/C=N/NC(N)=S)c2c(c1OCc1ccc(Cl)c(Cl)c1)CN1CCc3cc4c(cc3C1C2)OCO4` (stereo not given), for which the MIC in the assay with Candida albicans [1] amounted to 440 µM (≈ 258 µg/mL); in the assay on Bacillus subtilis, 220 µM (≈ 129 µg/mL); in the assay with Saccharomyces cerevisiae, 220 µM (≈ 129 µg/mL); with Enterococcus faecalis, 440 µM (≈ 258 µg/mL); with Micrococcus luteus, 440 µM (≈ 258 µg/mL); against Pseudomonas aeruginosa [2], 220 µM (≈ 129 µg/mL). Further, the minimum inhibitory concentration (MIC) against Acinetobacter baumannii was determined as 30 µM (≈ 17.6 µg/mL); in the assay with Staphylococcus aureus [3], 220 µM (≈ 129 µg/mL); against Aspergillus flavus, 440 µM (≈ 258 µg/mL); with Escherichia coli [4], 110 µM (≈ 64.4 µg/mL); against Cyberlindnera jadinii, 220 µM (≈ 129 µg/mL); with Candida albicans [5] it was 440 µM (≈ 258 µg/mL). Besides, the MIC against Escherichia coli [6] was determined as 110 µM (≈ 64.4 µg/mL); in the assay with Pseudomonas aeruginosa [7], 220 µM (≈ 129 µg/mL); against Aspergillus fumigatus, 3 µM (≈ 1.76 µg/mL); against Candida tropicalis, 110 µM (≈ 64.4 µg/mL); against Staphylococcus aureus [8], 220 µM (≈ 129 µg/mL); with Pichia norvegensis, 440 µM (≈ 258 µg/mL). Moreover, the MIC against Candida parapsilosis and with Klebsiella pneumoniae was 220 µM (≈ 129 µg/mL) throughout.
